Source: patent US20150258197A1, “EUTECTIC ISOMETHEPTENE MUCATE” (TONIX PHARMA HOLDINGS LIMITED, priority 2014, published 2015)

Experiments:
[1] = system: Spontaneous trigeminal allodynia (STA) rats; test: Tactile sensory testing with von Frey monofilaments in STA rats; assay type: in vivo, rat; details: injected, versus (S)-isometheptene mucate treated or control rats
Description: Pain, headaches, and migraines have been modeled in animals such as mice and rats. For example, Oshinsky et al. (Oshinsky, M. L., et al., Spontaneous Trigeminal Allodynia in Rats: A Model of Primary Headache, 2012, 52: 1336-1349) describes spontaneous trigeminal allodynia (STA) rats with the inherited trait of spontaneously changing trigeminal von Frey thresholds. These rats are a model of spontaneous headache and can be used as a model of primary headache. Through a series of tactile sensory tests, the periorbital, hind-paw, and jaw-pressure thresholds for STA rats are determined by applying von Frey monofilaments. […] Analgesic activity of the compositions described herein can be evaluated by determining trigeminal von Frey thresholds in STA rats. […]
STA rats and litter mates without the trait were injected with compounds selected from (R)-isometheptene mucate and (5)-isometheptene mucate on days when their thresholds in spontaneous allodynia rats were 4 g or below for STA rats. […] Tactile sensory thresholds were recorded prior to and following injections at 0.5 hours, 1.5 hours, 2.5 hours, 3.5 hours, and 24 hours. […]
Periorbital, hind-paw, and jaw-pressure thresholds were determined by applying von Frey monofilaments (Stoelting Co., Wood Dale, Ill., USA). […] Left and right threshold data were recorded separately. […]

mice = test: Hot Plate Test; assay type: in vivo; details: mouse, hot plate 54° C., 10, 30 and 100 mg/kg p.o. 15 minutes before the test
Description: Common mouse models for pain include the Formalin Test (Wheeler-Aceto, et al., Psychopharmacology, 104, 35-44, 1991), the Hot Plate Test (Eddy and Leimbach, J. Pharmacol. Exp. Ther., 107, 385-393, 1953), and the Tail-flick Test (D'Amour and Smith, J. Pharmacol. Exp. Ther., 1, 74-79, 1941). These methods detect analgesic activity of compositions of interest. In the Formalin Test, mice are given an intraplantar injection of 5% formalin into one posterior hindpaw to induce paw licking. Test compositions are given to the mice before treatment with formalin and the mice are evaluated and compared to a control group. In the Hot Plate Test, mice are placed onto a hot metal plate maintained at 54° C. and the latency to the first foot-lick is measured. As with the Formalin test, compositions of interest are given to the mice before the test and the mice are evaluated and compared to a control group. In the Tail-flick Test, a mouse's tail is heated by means of a thermal light source, and the latency before the animal withdraws its tail is measured. […]
Mice were placed onto a hot metal plate maintained at 54° C. surrounded by a Plexiglas cylinder (height: 13 cm; diameter: 19 cm). The latency to the first foot-lick was measured (maximum: 30 seconds). […]
Data with the test substance were analyzed by comparing treated groups with vehicle control using ANOVA followed by post-hoc Dunnett's tests. […]

**Q.** With `CN[C@H](C)CCC=C(C)C` [(R)-isometheptene mucate] as the compound, how does the “Tactile sensory (von Frey) threshold values” [1] read?
**A.** The value was “dramatic increase in threshold values”.

**Q.** And the “Foot-licking latency compared to vehicle” value (mice)?
**A.** Its value is “longer foot-licking latency times”.
